The text below walks through data of ChEMBL document CHEMBL1131526, “Non-peptidic HIV protease inhibitors: C2-symmetry-based design of bis-sulfonamide dihydropyrones” (Bioorg Med Chem Lett, 1998).

The target in test [1] is Human immunodeficiency virus type 1 protease (Human immunodeficiency virus 1) (UniProt Q72874). As to the kind of experiment: Compound was evaluated for in vitro inhibition of human immunodeficiency virus type 1 (HIV-1) Protease at 1 uM concentration.
Test [2] has as its target Human immunodeficiency virus type 1 protease (Human immunodeficiency virus 1, UniProt Q72874). In words: Compound was evaluated for in vitro inhibition of human immunodeficiency virus type 1 (HIV-1) Protease.
Test [3] in a line: Compound was evaluated for in vitro inhibition of human immunodeficiency virus type 1 (HIV-1) Protease.

As a reminder, the inhibition is the percentage by which the read-out fell short of the control. Read a high inhibition as a response far below the control. One may read the Ki as a measure of affinity in units of concentration, obtained from inhibition or displacement. Read a high Ki as lower affinity. By IC50 is commonly meant the concentration that inhibits the measured activity by half.

In test [1], `CCC(C1=C(O)OC(CC)(c2cccc(NS(=O)(=O)c3ccc(C#N)cc3)c2)CC1=O)c1cccc(NS(=O)(=O)c2ccc(C#N)cc2)c1` (stereo unspecified) showed an inhibition of 19%. Regarding `CCC(C1=C(O)OC(CC)(c2cccc(NS(=O)(=O)c3ccc(C#N)cn3)c2)CC1=O)c1cccc(NS(=O)(=O)c2ccc(C#N)cn2)c1` (stereo unspecified), the affinity in test [2], expressed as Ki, was 0.1 nM.

The compound `CCCC1(CCc2ccccc2)CC(=O)C(C(CC)c2cccc(NS(=O)(=O)c3cn(C)cn3)c2)=C(O)O1` (stereo unspecified) gave an IC50 in test [3] of 500 nM. Further, the Ki in test [2] worked out at 1 nM.

`CCC(C1=C(O)OC(CC)(c2cccc(NS(=O)(=O)c3cn(C)cn3)c2)CC1=O)c1cccc(NS(=O)(=O)c2cn(C)cn2)c1` (stereo unspecified) returned a Ki in test [2] of 4.7 nM. Regarding `CCC(C1=C(O)OC(CC)(c2cccc(NS(=O)(=O)c3cccc4cccnc34)c2)CC1=O)c1cccc(NS(=O)(=O)c2cccc3cccnc23)c1` (stereo unspecified), the inhibition in test [1] came out at 35%.
